Data taken from ChEMBL document CHEMBL5523764, “Discovery of NO Donor-Aurovertin Hybrids as Dual Ferroptosis and Apoptosis Inducers for Treating Triple Negative Breast Cancer” (J Med Chem, 2024).

Key:
MDA-MB-231 [1] = assay: Antiproliferative activity against human MDA-MB-231 cells assessed as reduction in cell viability incubated for 72 hrs by MTT assay; assay type: functional, cell-based; settings: MDA-MB-231, 72 h
4T1 = assay: Antiproliferative activity against mouse 4T1 cells assessed as reduction in cell viability incubated for 72 hrs by MTT assay; assay type: functional, cell-based; settings: 4T1, 72 h
[2] = Cytotoxicity against human MCF-10A cells assessed as reduction in cell viability incubated for 72 hrs by MTT assay; assay type: toxicity, cell-based
[3] = Selectivity index, ratio of IC50 for cytotoxicity against human MCF-10A cells to IC50 for antiproliferative activity against human MDA-MB-231 cells; assay type: toxicity, cell-based; settings: MCF-10A cells versus MDA-MB-231 cells, read-out: Ratio IC50
MDA-MB-231 [4] = assay: Induction of NO release in human MDA-MB-231 cells assessed NO concentration by Griess reagent based assay; assay type: functional

| Compound | IC50 (MDA-MB-231 [1]) | IC50 (4T1) | IC50 at 72 h [2] | selectivity ratio [3] | Activity (MDA-MB-231 [4]) |
| --- | --- | --- | --- | --- | --- |
| CC[C@H]1O[C@@]2(C)[C@H](OC(C)=O)[C@@]1(C)O[C@@H](/C=C/C=C/C=C/c1oc(=O)cc(OC)c1C)[C@@H]2OC(=O)CCC(=O)ONC(=O)CCCCCOc1no[n+]([O-])c1S(=O)(=O)c1ccccc1 | 1.05 µM | 1.89 µM | > 50 µM | > 48 | – |
| CC[C@H]1O[C@]2(C)C(OC(=O)CCC(=O)OCc3ccc(Oc4no[n+]([O-])c4S(=O)(=O)c4ccccc4)cc3)[C@H](/C=C/C=C/C=C/c3oc(=O)cc(OC)c3C)O[C@]1(C)[C@H]2OC(C)=O (single isomer, unassigned) | 5.88 µM | > 10 µM | – | – | 2.44 µM |
| CC[C@H]1O[C@@]2(C)[C@H](OC(C)=O)[C@@]1(C)O[C@@H](/C=C/C=C/C=C/c1oc(=O)cc(OC)c1C)[C@H]2OC(=O)CCC(=O)OCCCCCCOc1no[n+]([O-])c1S(=O)(=O)c1ccccc1 | 0.45 µM | 0.72 µM | > 50 µM | > 111 | 4.92 µM |
| CC[C@H]1O[C@@]2(C)[C@H](OC(C)=O)[C@@]1(C)O[C@@H](/C=C/C=C/C=C/c1oc(=O)cc(OC)c1C)[C@@H]2OC(=O)CCC(=O)OCC#CCOc1no[n+]([O-])c1S(=O)(=O)c1ccccc1 | 1.23 µM | 2.08 µM | > 50 µM | > 40 | – |
| CC[C@H]1O[C@@]2(C)[C@H](OC(C)=O)[C@@]1(C)O[C@@H](/C=C/C=C/C=C/c1oc(=O)cc(OC)c1C)[C@@H]2OC(=O)CCCC(=O)OCc1c(-c2ccc(F)cc2)no[n+]1[O-] | 7.24 µM | > 10 µM | > 50 µM | > 7 | 2.27 µM |
| CC[C@H]1O[C@@]2(C)[C@H](OC(C)=O)[C@@]1(C)O[C@@H](/C=C/C=C/C=C/c1oc(=O)cc(OC)c1C)[C@@H]2OC(=O)CCCCCOc1no[n+]([O-])c1S(=O)(=O)c1ccccc1 | 0.99 µM | 2.14 µM | > 50 µM | > 50 | – |
| CC[C@H]1O[C@@]2(C)[C@H](OC(C)=O)[C@@]1(C)O[C@@H](/C=C/C=C/C=C/c1oc(=O)cc(OC)c1C)[C@H]2OC(=O)CCC(=O)OCCc1ccc(Oc2no[n+]([O-])c2S(=O)(=O)c2ccccc2)cc1 | 3.28 µM | 5.56 µM | > 50 µM | > 15 | – |
| CC(=O)O[C@H]1C(=O)[C@@]2(C)[C@H]([C@H](OC(=O)c3ccccc3)[C@]3(O)C[C@H](OC(=O)[C@H](O)[C@@H](NC(=O)c4ccccc4)c4ccccc4)C(C)=C1C3(C)C)[C@]1(OC(C)=O)CO[C@@H]1C[C@@H]2O [PACLITAXEL] | 4.55 µM | 3.84 µM | 7.82 µM | 1.7 | – |
| CC[C@H]1O[C@]2(C)C(OC(=O)CCCC(=O)OCc3c(CSCCC(=O)O)no[n+]3[O-])[C@H](/C=C/C=C/C=C/c3oc(=O)cc(OC)c3C)O[C@]1(C)[C@H]2OC(C)=O (single isomer, unassigned) | > 10 µM | – | – | – | 1.89 µM |
| CC[C@H]1O[C@@]2(C)[C@H](OC(C)=O)[C@@]1(C)O[C@@H](/C=C/C=C/C=C/c1oc(=O)cc(OC)c1C)[C@@H]2OC(=O)CCC(=O)OCCOCCOc1no[n+]([O-])c1S(=O)(=O)c1ccccc1 | 1.75 µM | 2.7 µM | > 50 µM | > 28 | – |
| CC[C@H]1O[C@@]2(C)[C@H](OC(C)=O)[C@@]1(C)O[C@@H](/C=C/C=C/C=C/c1oc(=O)cc(OC)c1C)[C@@H]2OC(=O)CCCC(=O)OCc1c(-c2ccc(Cl)cc2)no[n+]1[O-] | 4.59 µM | 7.86 µM | > 50 µM | > 10 | 2.42 µM |
| CC[C@H]1O[C@@]2(C)[C@H](OC(C)=O)[C@@]1(C)O[C@@H](/C=C/C=C/C=C/c1oc(=O)cc(OC)c1C)[C@@H]2OC(=O)CCCCCCCOc1no[n+]([O-])c1S(=O)(=O)c1ccccc1 | 0.7 µM | 1.23 µM | > 50 µM | > 71 | – |
| CC[C@H]1O[C@@]2(C)[C@H](OC(C)=O)[C@@]1(C)O[C@@H](/C=C/C=C/C=C/c1oc(=O)cc(OC)c1C)[C@@H]2OC(=O)CCCCCCCCCCCCCOc1no[n+]([O-])c1S(=O)(=O)c1ccccc1 | > 10 µM | – | – | – | – |
| CC[C@H]1O[C@@]2(C)[C@H](OC(C)=O)[C@@]1(C)O[C@@H](/C=C/C=C/C=C/c1oc(=O)cc(OC)c1C)[C@@H]2OC(=O)CCCC(=O)OCc1c(-c2ccc(Br)cc2)no[n+]1[O-] | 4.75 µM | 4.56 µM | > 50 µM | > 10 | 2.65 µM |
| CC[C@H]1O[C@@]2(C)[C@H](OC(C)=O)[C@@]1(C)O[C@@H](/C=C/C=C/C=C/c1oc(=O)cc(OC)c1C)[C@@H]2OC(=O)CCCC(=O)OCc1c(-c2ccc(OC)cc2)no[n+]1[O-] | 3.87 µM | 6.72 µM | > 50 µM | > 13 | – |
| CC[C@H]1O[C@@]2(C)[C@H](OC(C)=O)[C@@]1(C)O[C@@H](/C=C/C=C/C=C/c1oc(=O)cc(OC)c1C)[C@@H]2OC(=O)CCC(=O)ONC(=O)CCCCOc1no[n+]([O-])c1S(=O)(=O)c1ccccc1 | 1.23 µM | 2.72 µM | > 50 µM | > 40 | – |
| CC[C@H]1O[C@]2(C)C(OC(=O)CCC(=O)OCc3cccc(Oc4no[n+]([O-])c4S(=O)(=O)c4ccccc4)c3)[C@H](/C=C/C=C/C=C/c3oc(=O)cc(OC)c3C)O[C@]1(C)[C@H]2OC(C)=O (single isomer, unassigned) | > 10 µM | – | – | – | 2.15 µM |
| CC[C@H]1O[C@@]2(C)[C@H](OC(C)=O)[C@@]1(C)O[C@@H](/C=C/C=C/C=C/c1oc(=O)cc(OC)c1C)[C@H]2OC(=O)CCC(=O)OCCCCOc1no[n+]([O-])c1S(=O)(=O)c1ccccc1 | 0.42 µM | 0.55 µM | > 50 µM | > 119 | 5.23 µM |
| CC[C@H]1O[C@@]2(C)[C@H](OC(C)=O)[C@@]1(C)O[C@@H](/C=C/C=C/C=C/c1oc(=O)cc(OC)c1C)[C@@H]2OC(=O)CCCC(=O)OCc1c(-c2ccccc2)no[n+]1[O-] | 9.93 µM | – | – | – | 1.93 µM |
| CC[C@H]1O[C@@]2(C)[C@H](OC(C)=O)[C@@]1(C)O[C@@H](/C=C/C=C/C=C/c1oc(=O)cc(OC)c1C)[C@@H]2OC(=O)CCCC(=O)OCc1c(CSCC(=O)O)no[n+]1[O-] | > 10 µM | – | – | – | 1.76 µM |
| CC[C@H]1O[C@@]2(C)[C@H](OC(C)=O)[C@@]1(C)O[C@@H](/C=C/C=C/C=C/c1oc(=O)cc(OC)c1C)[C@@H]2OC(=O)COCCOCCOc1no[n+]([O-])c1S(=O)(=O)c1ccccc1 | 0.5 µM | 0.77 µM | > 50 µM | > 100 | – |
| CC[C@H]1O[C@@]2(C)[C@H](OC(C)=O)[C@@]1(C)O[C@@H](/C=C/C=C/C=C/c1oc(=O)cc(OC)c1C)[C@@H]2OC(=O)CCC(=O)ONC(=O)COCCOc1no[n+]([O-])c1S(=O)(=O)c1ccccc1 | 1.5 µM | 3.42 µM | > 50 µM | > 33 | – |
| CC[C@H]1O[C@@]2(C)[C@H](OC(C)=O)[C@@]1(C)O[C@@H](/C=C/C=C/C=C/c1oc(=O)cc(OC)c1C)[C@@H]2OC(=O)CCCC(=O)OCc1c(-c2ccc(C)cc2)no[n+]1[O-] | 5.72 µM | 7.16 µM | > 50 µM | > 8 | – |
| CC[C@H]1O[C@@]2(C)[C@H](OC(C)=O)[C@@]1(C)O[C@@H](/C=C/C=C/C=C/c1oc(=O)cc(OC)c1C)[C@@H]2OC(=O)CCC(=O)ONC(=O)CCCOc1no[n+]([O-])c1S(=O)(=O)c1ccccc1 | 0.69 µM | 1.55 µM | > 50 µM | > 72 | – |
| CC[C@H]1O[C@@]2(C)[C@H](OC(C)=O)[C@@]1(C)O[C@@H](/C=C/C=C/C=C/c1oc(=O)cc(OC)c1C)[C@@H]2OC(=O)CCCC(=O)OCc1c(-c2ccc(C(F)(F)F)cc2)no[n+]1[O-] | 4.55 µM | 8.33 µM | > 50 µM | > 10 | – |
| CC[C@H]1O[C@]2(C)C(OC(=O)CCCC(=O)OCc3c(CSCCCO)no[n+]3[O-])[C@H](/C=C/C=C/C=C/c3oc(=O)cc(OC)c3C)O[C@]1(C)[C@H]2OC(C)=O (single isomer, unassigned) | > 10 µM | – | – | – | 2.02 µM |
| N=C(N)NCCC[C@H](N)C(=O)O [ARGININE] | – | – | – | – | 1.31 µM |
| CC[C@H]1O[C@@]2(C)[C@H](OC(C)=O)[C@@]1(C)O[C@@H](/C=C/C=C/C=C/c1oc(=O)cc(OC)c1C)[C@@H]2OC(=O)CCCC(=O)OCc1c(CSC[C@@H](NC(C)=O)C(=O)O)no[n+]1[O-] | > 10 µM | – | – | – | 1.71 µM |
